Source: patent US4996227A, “3-(heteroarylalkyene)- and 3-(arylalkylene)-2,4(3H,5H)-heterocyclic diones as cancer chemotherapy drugs” (priority 1989, dated 1991)
Like-named read-outs stand apart in the source and are kept apart here.

Tested on: human tumors
Test: Human Tumor Stem Cell Assay, summary over the tumor panel
Type: cell-based
Conditions: for activity at 1 µg/mL: Homo sapiens, 1.0 mcg/ml, 1 h
Description: The in vitro Human Tumor Stem Cell Assay procedure described as follows has several advantages for testing the effectiveness of chemotherapy drugs such as the 3-(heteroarylalkylene)-2,4(3H,5H)-furandiones. The first advantage is that fresh tumor cells from a variety of tumor types were used rather than a small number of cell lines which have undergone severe selection pressures as they are passed in vitro. The second advantage is that only the anchorage-independent tumor cells will form colonies in soft agar so that any non-malignant cells present in the sample will not form colonies. Perhaps the most important advantage, however, is the emphasis on cells which have the ability to form colonies. These cells, which are generally called stem cells, usually comprise only a small percentage of all tumor cells. They are thought to be the most important cells for growth and distant spread of a tumor. In particular, these cells have the potential to leave the primary tumor and form new tumors at distant sites (called metastases). It is the effectiveness against these very important stem cells that the Human Tumor Stem Cell Assay measures.
One of the 3-(heteroarylalkylene)-2,4(3H,5H)-furandione compounds, 3-[(5-methyl-2-thienyl) methylene]-2,4(3H,5H)-furandione was evaluated against a series of 10 human tumors in the in vitro Human Tumor Cell Assay, along with conventional and standard chemotherapy agents.
In the procedure, a single cell suspension was prepared from tumors excised from patients during therapeutic or diagnostic surgical procedures. The human tumor cells were exposed to known anticancer drugs or to [(5-methyl-2-thienyl)methylene]-2,4 (3H, 5H)-furandione at a low (0.2 mcg/ml) or a high (1.0 mcg/ml) concentration for one hour. […] The suspension was washed with tissue culture medium to remove the drug.
The suspension was then cultured in a double soft agar suspension. Control cells which had been treated identically, except for exposure to the drugs, were also cultured. After one to two weeks, both the tumor cells and the control cells formed colonies in the soft agar which were enumerated under a microscope. The number of colonies grown from the drug-treated cells was compared to the number of colonies grown from the control cells, and the percentage growth after exposure to the drug was calculated.
The results are illustrated in Table 1, wherein the various numbers indicate the percentage of growth. For example, a small number like 6 means that the number of colonies is only 6% of the number without addition of the compound. On the other hand, a large number like 120 means that the number of colonies is 20% greater with the compound than without. […]

`Cc1ccc(C=C2C(=O)COC2=O)s1` [Compound 4, 3[(5-methyl-2-thienyl)methylene]2,4(3H,5H)-furandione] was tested, and the activity at 1 µg/mL (five of nine tumors, read-out: growth, borderline sensitive tumors) was 30 to 50%, the activity at 1 µg/mL (four of nine tumors, read-out: growth, sensitive tumors) was 0 to 30% and the “peak plasma concentration at which compound should be effective in vivo” value (by analogy with other chemotherapy drugs) was 10 µg/mL. For the same compound, the “activity against human solid tumors in vitro” value (one hour exposure, 1 mcg/ml) was “extremely active against a wide variety of human solid tumors in vitro”.
